Here are results for one compound from patent publication US20090143752A1, “Passive intraocular drug delivery devices and associated methods” (priority 2007, published 2009).

The conditions of series [1]: New Zealand White, rabbit, in vivo, 4 h. The procedure:
A 100 microliter/30 G needle Hamilton syringe is used to administer a sub conjunctiva injection (n=2) of 20 microliters of 0.1M DSP at pH 7 into an eye of a New Zealand White Rabbit. The initial dose of DSP is 1.04 mg. […] The process is repeated for a total of 2 trials. About 23 micrograms of the approximate 1.04 mg subconjunctival injection of DSP are recovered from the whole eye after 4 hours. This illustrates the clearance effects of the transscleral pathway; in this case about 97.8 percent of the drug cleared the eye within four hours.

The nature of series [2]: DSP in eye tissues after passive delivery from six chambered annular lens-shaped housing, immediate release (Example 2). The series is classed as in vivo, New Zealand White Rabbit. Conditions: rabbit eye, 0.5 M DSP pH 7, 6.47 mgs in each of 3 chambers, housing on eye 20 minutes, 4 hours after application. On the procedure:
A six chambered annular lens-shaped housing is used to passively administer dexamethasone sodium phosphate (DSP) into the eye for immediate release. Chambers 1, 3, and 5 each contain a 2 mm Avalon Sponge hydrated with 25 μl of hydrogel and are further loaded with 6.47 mgs of 0.5 M DSP at pH 7 in each chamber. […] The process is repeated for a total of 4 trials.

As for `C[C@@H]1C[C@H]2[C@@H]3CCC4=CC(=O)C=C[C@]4(C)[C@@]3(F)[C@@H](O)C[C@]2(C)[C@@]1(O)C(=O)COP(=O)(O)O` [DSP, dexamethasone sodium phosphate], the “percent of the drug cleared the eye” value in series [1] is “about 97.8%”. Further, in series [2], the “DSP Total Drug, Conjunctiva” value is on record as 6.2 ± 0.8 micrograms; the “DSP Total Drug, Retina/Choroid” value came out at 1.1 ± 0.5 micrograms; the “DSP Total Drug, Sclera” value turned out to be 4.3 ± 1.0 micrograms; the “DSP Total Drug, Whole Eye” value was 14.9 ± 1.1 micrograms.
